pEC50: −log10 of the molar value.
Legend:
Assay type in all cases: cell-based, human
[1] = test system: L-363 multiple myeloma cell line; experiment: CD38 expression by flow cytometry on L-363 cells
Description: (§1) HL-60 acute promyelocytic leukemia cell line was purchased from ECACC (cat. 98070106), U-937 hystiocytic lymphoma cell line and MM.1S multiple myeloma cell line were purchased from ATCC (cat. CRL-2974 and cat CRL-1593,2, respectively), L-363 multiple myeloma cell line, L-428 classical Hodgkin lymphoma cell line and RS4,11 B-acute lymphoblastic leukemia cell lines were purchased from DSMZ (plasma cell leukemia, cat. ACC 49, cat. ACC 197 and cat. ACC 508, respectively). All cells were maintained in RPMI Medium 1640—GlutaMAX™ (Gibco 61870) except the RS4,11 cells in alpha-MEM Medium (Gibco 12571-063), supplemented with 10% heat inactivated charcoal stripped fetal bovine serum. All culture media were supplemented with 100 units/ml penicillin and 0.1 mg/ml streptomycin, and cell lines were cultured at 37° C. in a humidified atmosphere containing 5% CO2.
(§2) Cells were treated for 72 h with various concentrations of inecalcitol (Hybrigenics, Paris, France) before labelling with fluorescent anti-human CD38 FITC (eBioscience, Vienna, Austria, cat. 11-0389-41) or the matched isotype control: mouse IgG1 K FITC (eBioscience, Vienna Austria, cat. 11-4714-41) for 1 h at 4° C. in native buffer (PBS, 2% BSA, 0.1% sodium azide). After cell wash, fluorescence was measured on an ACEA NovoCyte Flow Cytometer.

[2] = test system: RS4,11 B-acute lymphoblastic leukemia cell line; experiment: CD38 expression by flow cytometry on RS4,11 cells
Description: as §1, §2

[3] = test system: U-937 hystiocytic lymphoma cell line; experiment: CD38 expression by flow cytometry on U-937 cells
Description: as §1, §2

[4] = test system: L-428 classical Hodgkin lymphoma cell line; experiment: CD38 expression by flow cytometry on L-428 cells
Description: as §1, §2

[5] = test system: HL-60 acute promyelocytic leukemia cell line; experiment: CD38 expression by flow cytometry on HL-60 cells
Description: as §1, §2

[6] = test system: MM.1S multiple myeloma cell line; experiment: CD38 expression by flow cytometry on MM.1S cells
Description: as §1, §2

C[C@H](CC#CC(C)(C)O)[C@H]1CC[C@@H]2/C(=C/C=C3C[C@@H](O)C[C@H](O)C3)CCC[C@@]21C [inecalcitol, 14epi-, 19nor-, 23yne-, 1,25dihydroxy-cholecalciferol]
effect on CD38 expression (fold increase of CD38 mean fluorescent signal), in words ([1]; FIG. 2, L-363 cell line, dose dependent): enhances CD38 expression
maximal increase in fluorescent labelling (CD38) ([1]; L-363 cells, 72 h treatment): 5 fold
pEC50 ([1]; L-363 cells, 72 h treatment, anti-human CD38 FITC flow cytometry, read-out: concentration which triggered 50% of the maximum CD38 induction (EC50)): 8.40
effect on CD38 expression (fold increase of CD38 mean fluorescent signal), in words ([2]; FIG. 6, RS4.11 cell line, dose dependent): enhances CD38 expression
increase in fluorescent labelling (CD38) ([2]; RS4,11 cells, 72 h treatment): 2.5 fold
pEC50 ([2]; RS4,11 cells, 72 h treatment, anti-human CD38 FITC flow cytometry, read-out: concentration which triggered 50% of the maximum CD38 induction (EC50)): 9.26
effect on CD38 expression (fold increase of CD38 mean fluorescent signal), in words ([3]; FIG. 3, U-937 cell line, dose dependent): enhances CD38 expression
maximal increase in fluorescent labelling (CD38) ([3]; U-937 cells, 72 h treatment): 5 fold
pEC50 ([3]; U-937 cells, 72 h treatment, anti-human CD38 FITC flow cytometry, read-out: concentration which triggered 50% of the maximum CD38 induction (EC50)): 9.24
effect on CD38 expression (fold increase of CD38 mean fluorescent signal), in words ([4]; FIG. 5, classical Hodgkin lymphoma cell line, dose dependent): enhances CD38 expression
increase in fluorescent labelling (CD38) ([4]; L-428 cells, 72 h treatment): 2 fold
pEC50 ([4]; L-428 cells, 72 h treatment, anti-human CD38 FITC flow cytometry, read-out: concentration which triggered 50% of the maximum CD38 induction (EC50)): 9.64
effect on CD38 expression (fold increase of CD38 mean fluorescent signal), in words ([5]; FIG. 4, HL-60 cell line, dose dependent): enhances CD38 expression
pEC50 ([5]; HL-60 cells, 72 h treatment, anti-human CD38 FITC flow cytometry, read-out: concentration which triggered 50% of the maximum CD38 induction (EC50)): 9.37
effect on CD38 expression (fold increase of CD38 mean fluorescent signal), in words ([6]; FIG. 1, MM.1S cell line, dose dependent): enhances CD38 expression
pEC50 ([6]; MM1.S, MM.1s cells, 72 h treatment, anti-human CD38 FITC flow cytometry, read-out: concentration which triggered 50% of the maximum CD38 induction (EC50)): 9.31
maximal increase in fluorescent labelling (CD38) ([6]; MM.1s cells, 72 h treatment): 5 fold

Reference: patent US10478497B2, “Combinations of inecalcitol with an anti-CD38 agent and their uses for treating cancer” (HYBRIGENICS SA., priority 2016, dated 2019)
